Results as given in US9790506B2, “Diagnostic and screening methods for atopic dermatitis” (The Regents of the University of California, priority 2013, dated 2017).
Ends that are not written are not given here.

Key:
DRG neurons = test: ratiometric Ca^2+ imaging of DRG neurons; type: cell-based, mouse; settings: for Ca^2+ levels in TSLP-positive cells on subsequent exposure: AITC 200 μM, CAP 1 μM, all TSLP-positive cells; for prevalence of TSLP-sensitive neurons / TSLP-evoked Ca^2+ signals after pre-treatment: neurons pre-treated with blocker versus vehicle; for overlap of the TSLP-sensitive population with the population sensitive to the compound: DRG neurons, FIG. 3D
Experimental: (§1) Physiological Ringer solution: 140 mM NaCl, 5 mM KCl, 10 mM HEPES, 2 mM CaCl2, 2 mM MgCl2, 10 mM D-(+)-glucose, pH 7.4 with NaOH. Images were collected and analyzed using MetaFluor (Molecular Devices).

keratinocytes [1] = test: TSLP release from keratinocytes (ELISA); type: cell-based, human; settings: 24 h treatment, tryptase 100 nM, SLIGRL 100 μM; for TSLP secretion: TG 1 μM, versus vehicle; for TSLP secretion in the absence of external Ca^2+: 0 Ca
Text: TSLP release was normalized to vehicle.

keratinocytes [2] = test: ratiometric Ca^2+ imaging of keratinocytes; type: cell-based, human; settings: for intracellular Ca^2+ response of keratinocytes / tryptase-evoked Ca^2+ influx: tryptase 100 nM; for intracellular Ca^2+ response of keratinocytes / SLIGRL-evoked Ca^2+ influx: SLIGRL 100 μM; for intracellular Ca^2+ response of keratinocytes: BAM8-22 2 μM; for SLIGRL-evoked Ca^2+ influx / tryptase-evoked Ca^2+ influx: 2 mM Ca^2+, 50 μM 2-APB, 50 nM La^3+
Experimental: as §1

keratinocytes [3] = test: perforated-patch voltage-clamp recordings on keratinocytes; type: cell-based, human; settings: SLIGRL 100 μM
Experimental: Electrophysiology Recordings were collected at 5 kHz and filtered at 2 kHz using an Axopatch 200B and PClamp software. Electrode resistances were 2-6 MΩ. Perforated patch internal solution: 140 mM CsCl, 5 mM EGTA, 10 mM HEPES, pH 7.4 with CsOH, 0.24 mg ml^−1 Amphotericin B (Rae et al., 1991). Stimulation protocol: 10 ms step to −80 mV, 150 ms ramp from −80 mV to +80 mV. Current clamp internal solution: 140 mM KCl, 5 mM EGTA and 10 mM HEPES (pH 7.4 with KOH). Series resistance of all cells were <30 MΩ, and liquid junction potentials were <5 mV (no correction).

NFAT = NFAT translocation to the nucleus in keratinocytes (immunostaining); type: cell-based, human; settings: for SLIGRL-induced NFAT nuclear translocation in the presence of inhibitor: SLIGRL 100 μM + 2APB 50 μM or CsA 1 μM, 30 min
Experimental: Histology Histology was carried out as previously described (Gerhold, 2013). Antibodies: rabbit anti-PGP9.5 and rabbit anti-peripherin (Millipore) 1:1000; goat anti-TSLPR and mouse anti-NFATcI (Santa Cruz Biotechnology) 1:100. IL7Rα and TSLPR probes (Panomics) were used for in situ hybridization following the Quantigene protocol (Panomics).
Following a rise in Ca^2+, NFAT is dephosphorylated by the Ca^2+-dependent phosphatase calcineurin and translocates from the cytosol to the nucleus to promote transcription of target genes (Rao et al., 1997).

TSLP transcripts = test: expression of TSLP transcripts in keratinocytes; type: cell-based, human; settings: PAR2-evoked SOCE; 3 h treatment with SLIGRL 100 μM versus vehicle
Experimental: RT-PCR RNA was extracted using RNeasy (Qiagen) and reverse transcription was performed using Superscript III. RT-PCR was carried out using SYBR Green (Invitrogen) on a StepOnePlus ABI machine. Threshold cycles for each transcript (Bogiatzi et al.) were normalized to GAPDH (ACt). Calibrations and normalizations used the 2^−ΔΔCt method where ΔΔCt=[(Ct (target gene)−Ct (reference gene)]−[Ct (calibrator)−Ct (reference gene)]; GAPDH=reference gene; scrambled siRNA=calibrator. Experiments were performed in triplicate.

mice = test: mouse cheek model of itch (scratching behavior after intradermal injection); type: in vivo
Experimental: Mice and Behavior Mice (20-35 g) were housed in 12 h light-dark cycle at 21° C. […] For AITC behavior, 5 μL 10% AITC in mineral oil was applied to the right hind paw. Behavioral scoring was performed while blind to treatment and genotype. All experiments were performed under the policies and recommendations of the International Association for the Study of Pain and approved by the University of California, Berkeley Animal Care and Use Committee. […]

DRG neuron = test: current-clamp recording in DRG neuron; type: cell-based, mouse; settings: subset of CAP-sensitive DRG neurons
MrgprC11 = molecular target: T1, MrgprC11 (Mus musculus, UniProt Q8CIP3); test: Ca^2+ response in the presence or absence of the mouse BAM8-22 receptor MrgprC11; type: cell-based; settings: tryptase 3 μM
T1 sequence (Q8CIP3 1-322): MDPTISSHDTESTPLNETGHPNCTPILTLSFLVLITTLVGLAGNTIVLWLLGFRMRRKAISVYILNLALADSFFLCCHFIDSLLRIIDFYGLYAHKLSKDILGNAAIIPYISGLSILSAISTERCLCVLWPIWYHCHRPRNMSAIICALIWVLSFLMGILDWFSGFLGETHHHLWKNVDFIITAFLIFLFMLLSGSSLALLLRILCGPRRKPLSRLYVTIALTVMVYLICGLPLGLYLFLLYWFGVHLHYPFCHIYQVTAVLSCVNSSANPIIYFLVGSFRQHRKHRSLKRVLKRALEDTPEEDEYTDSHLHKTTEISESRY
Experimental: FIG. 15. […] MrgprX1 was amplified from DRG, but not keratinocytes. MrgprX1 and GAPDH were amplified from RT-treated tissue but not from “no RT” controls. (B) Representative response to BAM8-22 (BAM, 2 μM) in human keratinocytes. (C) Representative response to tryptase (TRY, 3 μM) and BAM8-22 (BAM, 2 μM) in the presence or absence of the mouse BAM8-22 receptor, MrgprC11. (D) Left: representative traces showing a neuron that is sensitive to BAM8-22 (BAM) but not tryptase (TRY, blue), and a neuron that is sensitive to tryptase but not BAM8-22 (black). Right: quantification of the prevalence of tryptase-responsive (TRY, black), BAM8-22-responsive (blue, BAM), and tryptase- and BAM8-22-responsive neurons in mouse dorsal root ganglia. n≧500 cells. Data are represented as mean+/−SEM

Question: `C=CCN=C=S` [AITC, allyl isothiocyanate] was tested. Which “Ca^2+ levels in TSLP-positive cells on subsequent exposure” value (DRG neurons) did it give?
Answer: further increased

Question: Which “neuronal sensitivity to TSLP after TRPV1 and TRPA1 inhibition” value (DRG neurons; 20 μM ruthenium red) does the source give for `N.N.N.N.N.N.N.N.N.N.N.N.N.N.[Cl-].[Cl-].[Cl-].[Cl-].[Cl-].[Cl-].[O-2].[O-2].[Ru+3].[Ru+3].[Ru+4]` [ruthenium red] here?
Answer: significantly decreased

Question: Which results are given for “SLIGRL [widely used PAR2 ligand mimetic]”?
Answer: TSLP secretion (keratinocytes [1]): robust secretion; TSLP secretion in the absence of external Ca^2+ (keratinocytes [1]): not observed; intracellular Ca^2+ response of keratinocytes (keratinocytes [2]): evoked a rise in intracellular Ca^2+; reversal potential of SLIGRL-evoked currents (keratinocytes [3]): no measurable reversal potentials below +80 mV; SLIGRL-evoked currents (keratinocytes [3]; dependent on extracellular Ca^2+, inwardly-rectifying): triggered an ORAI1/2-like current; NFAT translocation to the nucleus (NFAT; SLIGRL 100 μM for 30 minutes): induced robust NFAT translocation; expression of TSLP transcripts (TSLP transcripts): robustly increased

Question: `COc1ccc2c(c1)CC[C@@H]1[C@@H]2CC[C@]2(C)[C@@H](NCCCCCCN3C(=O)C=CC3=O)CC[C@@H]12` [U73122, 1-[6-[[(17β)-3-Methoxyestra-1,3,5(10)-trien-17-yl]amino]hexyl]-1H-pyrrole-2,5-dione] was tested. Which “TSLP-evoked scratching after intradermal injection of PLC blocker” value (mice; 30 min preinjection, versus vehicle, scratching quantified for 20 min) did it give?
Answer: significantly attenuated

Question: What about the “CQ-evoked scratching after intradermal injection of PLC blocker” value (mice; preinjection, versus vehicle) of the same compound?
Answer: normal

Question: What about the “prevalence of TSLP-sensitive neurons / TSLP-evoked Ca^2+ signals after pre-treatment” value (DRG neurons) of the same compound?
Answer: significantly reduced

Question: With `C=C(C)[C@]12C[C@@H](C)[C@@]34O[C@](Cc5ccccc5)(O[C@@H]1[C@@H]3C=C(COC(=O)Cc1ccc(O)c(OC)c1)C[C@]1(O)C(=O)C(C)=C[C@@H]41)O2` [RTX, resiniferatoxin] as the compound, how does the “TSLP-evoked scratching after neuronal ablation” value (mice; RTX-treated mice compared to control mice, RTX two days prior to pruritogen) read?
Answer: significantly decreased

Question: How did the “prevalence of TSLP-sensitive neurons / TSLP-evoked Ca^2+ signals after pre-treatment” value (DRG neurons) turn out when `O=C1OC2(c3ccccc31)c1ccc(O)c(O)c1Oc1c2ccc(O)c1O` [gallein] was run?
Answer: no effect

Question: “VGRPEWWMDYQKRYG [BAM8-22, MrgprX1-specific ligand, endogenous pruritogen]” was tested. Which “overlap of the TSLP-sensitive population with the population sensitive to the compound” value (“overlap of the TSLP-sensitive population” for short) (DRG neurons) did it give?
Answer: 0%

Question: And the “intracellular Ca^2+ response of keratinocytes” value (keratinocytes [2])?
Answer: insensitive

Question: How did the “TSLP-evoked itch behaviors in strains lacking T and B cells or mast cells” value (mice; RAG1−/−, NOD SCID, Kit(W-sh) mice, no significant differences to wild type littermates) turn out when “TSLP: AD cytokine released from keratinocytes; injected as pruritogen, acts on TSLPR-positive sensory neurons” was run?
Answer: robust itch behaviors

Question: And the “time after injection at which robust itch behaviors were observed” value (mice; TSLP injection)?
Answer: ≤ 5 min

Question: And the “wiping (pain behavior)” value (mice; TSLP injection into the cheek of wild type mice)?
Answer: never observed

Question: And the latency to scratch (mice; TSLP injection into the cheek of wild type mice (2.5 μg/20 μl))?
Answer: 4.1 ± 0.3 min

Question: And the itch-evoked scratching (mice; TSLP injection into the cheek of wild type mice, versus vehicle)?
Answer: evoked robust scratching

Question: And the “TSLP-evoked scratching in TRPA1-deficient mice” value (mice; cheek injection 2.5 μg/10 μL)?
Answer: abolished

Question: And the “TSLP-evoked scratching in TRPV1-deficient mice” value (mice; cheek injection 2.5 μg/10 μL)?
Answer: normal

Question: And the “TSLP-evoked scratching in IL7Rα-deficient mice” value (mice; cheek injection, versus wild type)?
Answer: significantly attenuated

Question: And the “DRG neurons showing robust increases in intracellular Ca^2+” value (DRG neurons; TSLP application (2 ng/mL), wild-type neurons)?
Answer: 4.1±0.6%

Question: What about the “source of TSLP-evoked Ca^2+ signal in sensory neurons” value (DRG neurons; absence (0 mM) and presence (2 mM) of extracellular Ca^2+) of the same compound?
Answer: triggers both release of Ca^2+ from intracellular stores, and subsequent Ca^2+ influx

Question: What about the “evoked Ca^2+ signaling abolished in IL7Rα-deficient neurons” value (DRG neurons; neurons isolated from IL7Rα-deficient mice) of the same compound?
Answer: abolished

Question: What about the “TSLP-evoked Ca^2+ signals in TRPA1-deficient neurons” value (DRG neurons; versus wild type littermates) of the same compound?
Answer: significantly attenuated

Question: What about the action potential firing (DRG neuron) of the same compound?
Answer: triggered action potential firing

Question: Which “SLIGRL-evoked Ca^2+ influx” value (keratinocytes [2]) does the source give for `NCCOB(c1ccccc1)c1ccccc1` [2-APB, 2-Aminoethoxydiphenyl borate] here?
Answer: significantly attenuated

Question: What about the “tryptase-evoked Ca^2+ influx” value (keratinocytes [2]) of the same compound?
Answer: significantly attenuated

Question: What about the “SLIGRL-induced NFAT nuclear translocation in the presence of inhibitor” value (NFAT) of the same compound?
Answer: attenuated

Question: What about the “SLIGRL-induced NFAT nuclear translocation in the presence of inhibitor” value (NFAT; listed as 2APB) of the same compound?
Answer: prevented

Question: For `COc1cc(CNC(=O)CCCC/C=C/C(C)C)ccc1O` [CAP, capsaicin], which “Ca^2+ levels in TSLP-positive cells on subsequent exposure” value (DRG neurons) is on record?
Answer: further increased

Question: For `CCN(CC)CCCC(C)Nc1ccnc2cc(Cl)ccc12` (stereo not shown) [CQ, chloroquine], which “overlap of the TSLP-sensitive population” value (DRG neurons) is on record?
Answer: 6%

Question: tryptase: endogenous PAR2 agonist was tested. Which “tryptase-evoked itch in IL7Rα-deficient mice” value (mice; cheek 100 μg/20 μL) did it give?
Answer: significantly attenuated

Question: What about the “tryptase-evoked itch in PAR2-deficient mice” value (mice; cheek 100 μg/20 μL) of the same compound?
Answer: significantly attenuated

Question: And the tryptase-evoked itch behaviors (mice; wild type mice, cheek 100 μg/20 μL, scratching quantified for 1 h)?
Answer: induced robust itch behaviors

Question: And the TSLP secretion (keratinocytes [1])?
Answer: robust secretion

Question: And the “TSLP secretion in the absence of external Ca^2+” value (keratinocytes [1])?
Answer: not observed

Question: And the “intracellular Ca^2+ response of keratinocytes” value (keratinocytes [2])?
Answer: evoked a rise in intracellular Ca^2+

Question: And the “activation of MrgprC11” value (MrgprC11)?
Answer: does not activate

Question: Which “SLIGRL-evoked Ca^2+ influx” value (keratinocytes [2]) does the source give for `[La+3]` [La^3+, lanthanum] here?
Answer: significantly attenuated

Question: And the “tryptase-evoked Ca^2+ influx” value (keratinocytes [2])?
Answer: significantly attenuated

Question: `NCCc1c[nH]cn1` [histamine] was tested. Which “overlap of the TSLP-sensitive population” value (DRG neurons) did it give?
Answer: 6%

Question: With `C/C=C(/C)C(=O)O[C@H]1C(C)=C2[C@H]([C@@H]1OC(=O)CCCCCCC)[C@@](C)(OC(C)=O)C[C@H](OC(=O)CCC)[C@@]1(O)[C@H]2OC(=O)[C@@]1(C)O` [TG, thapsigargin] as the compound, how does the TSLP secretion (keratinocytes [1]) read?
Answer: significant increase
